According to US9303044B2, “7-(piperazin-1-yl)-5H-[1,3,4]thiadiazolo[3,2-A]pyrimidin-5-ones for the treatment of thrombotic disorders” (The Rockefeller University, priority 2012, dated 2016):

Tested on: platelet aggregation
Assay: ADP-induced platelet aggregation assay in citrated platelet-rich plasma
Format: cell-based
Conditions: Homo sapiens, initial slopes, read-out: IC50, inhibition of platelet aggregation
Experimental: The platelet aggregation assay may be conducted by modification of the assay as disclosed in Blue et al., Blood 2008, 111, 1248, the contents of which are incorporated by reference in their entirety. Citrated platelet-rich plasma (PRP), may be generated by the centrifugation of whole blood at 650 g for 4 minutes at 22° C., and may then be incubated in aggregometer cuvettes with Compounds of the Invention (final concentration of 100 μM, 30 μM, 10 μM, 1 μM, 0.30 μM, 0.1 μM, 0.03 μM and 0.01 μM) or controls for 15 minutes at 37° C. After 30 seconds in the aggregometer (Bio/Data PAP8; Horsham, Pa.) at 37° C. with stiffing, ADP (5-20 μM) may be added to induce aggregation and the light transmittance is measured for 8 minutes. The initial slopes of aggregation in the presence of different concentrations of the Compound tested may be used to generate an IC50.

Row | IC50 [µM] | Structure (SMILES)
1 | 0.0536 ± 0.0155 | NCC(=O)Nc1cc(-c2nn3c(=O)cc(N4CCNCC4)nc3s2)ccn1 [Example 14-B, 2-amino-N-(4-(5-oxo-7-(piperazin-1-yl)-5H-[1,3,4]thiadiazolo[3,2-a]pyrimidin-2-yl)pyridin-2-yl)acetamide]
2 | 0.062 ± 0.01 | NCC(=O)Nc1cncc(-c2nn3c(=O)cc(N4CCNCC4)nc3s2)c1 [Example 14-C, 2-Amino-N-(5-(5-oxo-7-(piperazin-1-yl)-5H-[1,3,4]thiadiazolo[3,2-a]pyrimidin-2-yl)pyridin-3-yl)acetamide]
